This is an account of results in US8969565B2, “Imidazo[1,2-b]pyridazine-based compounds, compositions comprising them, and methods of their use” (Lexicon Pharmaceuticals, Inc., priority 2012, dated 2015).

For this experiment, the target named is T1, AAK1 (Homo sapiens, UniProt Q2M2I8).
T1 construct: HA; expressed in transfected cells; host or cells: HEK293F
T1 sequence (Q2M2I8 1-863 isoform Q2M2I8-2): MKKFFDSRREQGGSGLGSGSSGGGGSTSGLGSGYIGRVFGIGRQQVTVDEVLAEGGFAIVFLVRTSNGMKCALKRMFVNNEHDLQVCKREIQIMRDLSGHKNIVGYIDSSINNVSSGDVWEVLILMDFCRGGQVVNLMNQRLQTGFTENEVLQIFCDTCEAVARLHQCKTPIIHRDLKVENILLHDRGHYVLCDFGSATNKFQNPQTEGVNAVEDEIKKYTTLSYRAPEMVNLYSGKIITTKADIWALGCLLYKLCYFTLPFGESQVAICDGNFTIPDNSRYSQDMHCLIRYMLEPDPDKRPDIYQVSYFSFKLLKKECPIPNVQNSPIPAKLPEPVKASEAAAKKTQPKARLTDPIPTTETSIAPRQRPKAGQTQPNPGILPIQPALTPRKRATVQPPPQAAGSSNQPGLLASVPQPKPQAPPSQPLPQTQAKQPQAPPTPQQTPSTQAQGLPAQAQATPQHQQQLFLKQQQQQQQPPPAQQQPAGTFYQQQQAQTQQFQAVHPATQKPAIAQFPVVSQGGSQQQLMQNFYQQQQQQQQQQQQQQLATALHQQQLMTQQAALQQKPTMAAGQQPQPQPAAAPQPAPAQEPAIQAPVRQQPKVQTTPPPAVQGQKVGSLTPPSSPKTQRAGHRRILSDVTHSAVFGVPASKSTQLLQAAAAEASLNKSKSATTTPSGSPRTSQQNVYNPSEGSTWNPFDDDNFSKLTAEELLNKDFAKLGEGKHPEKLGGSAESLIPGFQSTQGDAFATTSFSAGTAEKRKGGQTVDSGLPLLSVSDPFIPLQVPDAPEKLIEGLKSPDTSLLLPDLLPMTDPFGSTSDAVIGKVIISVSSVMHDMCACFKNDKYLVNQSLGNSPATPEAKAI
As to the kind of experiment: P81 filter plate assay. The class given is biochemical. The conditions noted are these: full-length human AAK1, Mu2 substrate. As for the experimental part: Compounds were serially diluted into a Labcyte LDV plate (Labcyte, cat#LP-0200) using a Mutiprobe (PerkinElmer) and Biomek FX (Beckman Coulter) so that the highest compound concentration was at 96 μM. Compounds were then pinged (75 nL per well) into a Greiner 384-well reaction plate (Greiner, #781076) using an ECHO 550 Liquid Handler (Labcyte). A total of 12 μl reaction buffer (IMAP buffer containing Tween and DTT, from Molecular Devices) was then added to each well of columns 1 and 13 for the negative controls and 12 μl of 2×AAK1 (0.2 nM full-length human protein, NCBI accession no. NP_055726.2) was added to the remaining wells. Enzyme was then pre-incubated with compound for 10 minutes at RT. Reactions were initiated upon Minitrak (PerkinElmer) addition of 12 μl substrate mix containing 2×Mu2 (0.2 μM, full length human protein), 2× cold ATP (2 μM), and 1.3 μCi of hot ^33P-ATP. Reactions proceeded for one hour at RT. Meanwhile, Millipore 384-well P81 filter plates (Millipore, catalog #MZPHNOW10) were placed on a plate washer (Zoom ZW, from Titertek) and pre-wet with 50 μl 1% phosphoric acid. Kinase reactions were then stopped upon addition of 24 μl of 2% phosphoric acid to each well and the Minitrak was then used to transfer 40 μl from each well into the pre-wet Millipore 384-well P81 filter plates. Reaction mixtures were incubated for 10 minutes at RT in the P81 plates, followed by washing five times with 100 μl/well of 1% phosphoric acid using the Zoom filter washer. The bottom of each filter plate was sealed followed by addition of 20 μl Microscint 40 to each well, sealing the top of the plates with Flashplate cover, and then waiting one hour until reading on the TopCount (PerkinElmer).
Consider `CC(C)C[C@H](N)C(=O)N1CCN(c2ccc3ncc(Br)n3n2)CC1` [(S)-2-amino-1-(4-(3-bromoimidazo[1,2-b]pyridazin-6-yl)piperazin-1-yl)-4-methylpentan-1-one], for which the IC50 is ≤ 0.01 µM.

For `CC(C)C[C@H](N)C(=O)N1CCN(c2ccc3ncc(Cl)n3n2)CC1` [(S)-2-amino-1-(4-(3-chloroimidazo[1,2-b]pyridazin-6-yl)piperazin-1-yl)-4-methylpentan-1-one], the IC50 is ≤ 0.1 µM.

`CC(C)C[C@H](N)C(=O)N1CCN(c2ccc3nccn3n2)CC1` [(S)-2-amino-1-(4-(imidazo[1,2-b]pyridazin-6-yl)piperazin-1-yl)-4-methylpentan-1-one]: the IC50 is ≤ 1 µM.

Turning to `Cc1cnc2ccc(N3CCN(C(=O)[C@@H](N)C(C)C)CC3)nn12` [(S)-2-amino-3-methyl-1-(4-(3-methylimidazo[1,2-b]pyridazin-6-yl)piperazin-1-yl)butan-1-one], the IC50 was ≤ 0.01 µM.

On to `Cc1cnc2ccc(N3CCN(C(=O)[C@@H](N)CC(C)C)CC3)nn12` [(S)-2-amino-4-methyl-1-(4-(3-methylimidazo[1,2-b]pyridazin-6-yl)piperazin-1-yl)pentan-1-one], for which the IC50 is ≤ 0.1 µM.

With `CN(C(=O)CC1CC1)[C@H]1CCN(c2ccc3ncc(-c4cccnc4O)n3n2)C1` [(S)-2-cyclopropyl-N-(1-(3-(2-hydroxypyridin-3-yl)imidazo[1,2-b]pyridazin-6-yl)pyrrolidin-3-yl)-N-methylacetamide], the IC50 was ≤ 0.01 µM.

In the case of `COCCOC(=O)N(C)[C@H]1CCN(c2ccc3ncc(-c4cccnc4OC)n3n2)C1` [(S)-2-methoxyethyl (1-(3-(2-methoxypyridin-3-yl)imidazo[1,2-b]pyridazin-6-yl)pyrrolidin-3-yl)(methyl)carbamate], the IC50 is ≤ 0.1 µM.

As to `CN(C(=O)CC(F)(F)F)[C@H]1CCN(c2ccc3ncc(-c4cccnc4O)n3n2)C1` [(S)-3,3,3-trifluoro-N-(1-(3-(2-hydroxypyridin-3-yl)imidazo[1,2-b]pyridazin-6-yl)pyrrolidin-3-yl)-N-methylpropanamide], the IC50 is ≤ 0.01 µM.

For `COCCO[C@H]1CCN(c2ccc3ncc(-c4cc(C)cnc4OC)n3n2)C1` [(S)-3-(2-methoxy-5-methylpyridin-3-yl)-6-(3-(2-methoxyethoxy)pyrrolidin-1-yl)imidazo[1,2-b]pyridazine], the IC50 was ≤ 1 µM.

Regarding `COCCO[C@H]1CCN(c2ccc3ncc(-c4ccc(C)nc4OC)n3n2)C1` [(S)-3-(2-methoxy-6-methylpyridin-3-yl)-6-(3-(2-methoxyethoxy)pyrrolidin-1-yl)imidazo[1,2-b]pyridazine], the IC50 was ≤ 0.1 µM.

For the compound `COCCO[C@H]1CCN(c2ccc3ncc(-c4cccnc4OC)n3n2)C1` [(S)-6-(3-(2-methoxyethoxy)pyrrolidin-1-yl)-3-(2-methoxypyridin-3-yl)imidazo[1,2-b]pyridazine], the IC50 was ≤ 1 µM.

`COCC(=O)N(C)[C@H]1CCN(c2ccc3ncc(-c4cccnc4O)n3n2)C1` [(S)-N-(1-(3-(2-hydroxypyridin-3-yl)imidazo[1,2-b]pyridazin-6-yl)pyrrolidin-3-yl)-2-methoxy-N-methylacetamide]: the IC50 was ≤ 1 µM.

`CC(C)CC(=O)N(C)[C@H]1CCN(c2ccc3ncc(-c4cccnc4O)n3n2)C1` [(S)-N-(1-(3-(2-hydroxypyridin-3-yl)imidazo[1,2-b]pyridazin-6-yl)pyrrolidin-3-yl)-N,3-dimethylbutanamide]: the IC50 is ≤ 0.1 µM.

Take `CCCC(=O)N(C)[C@H]1CCN(c2ccc3ncc(-c4cccnc4O)n3n2)C1` [(S)-N-(1-(3-(2-hydroxypyridin-3-yl)imidazo[1,2-b]pyridazin-6-yl)pyrrolidin-3-yl)-N-methylbutyramide]: the IC50 was ≤ 0.1 µM.

With `CCCC(=O)N(C)[C@H]1CCN(c2ccc3ncc(-c4cccnc4OC)n3n2)C1` [(S)-N-(1-(3-(2-methoxypyridin-3-yl)imidazo[1,2-b]pyridazin-6-yl)pyrrolidin-3-yl)-N-methylbutyramide], the IC50 is ≤ 0.1 µM.

Regarding `CCCC(=O)N(C)[C@H]1CCN(c2ccc3ncc(Br)n3n2)C1` [(S)-N-(1-(3-bromoimidazo[1,2-b]pyridazin-6-yl)pyrrolidin-3-yl)-N-methylbutyramide], the IC50 is ≤ 1 µM.

As for `CN(C(=O)N1CCCC1)[C@H]1CCN(c2ccc3ncc(Br)n3n2)C1` [(S)-N-(1-(3-bromoimidazo[1,2-b]pyridazin-6-yl)pyrrolidin-3-yl)-N-methylpyrrolidine-1-carboxamide], the IC50 was ≤ 0.1 µM.

`CCCC(=O)N(C)[C@H]1CCN(c2ccc3ncc(-c4cccnc4)n3n2)C1` [(S)-N-methyl-N-(1-(3-(pyridin-3-yl)imidazo[1,2-b]pyridazin-6-yl)pyrrolidin-3-yl)butyramide]: the IC50 is ≤ 1 µM.

Turning to `CCCC(=O)N(C)[C@H]1CCN(c2ccc3ncc(-c4ccncc4)n3n2)C1` [(S)-N-methyl-N-(1-(3-(pyridin-4-yl)imidazo[1,2-b]pyridazin-6-yl)pyrrolidin-3-yl)butyramide], the IC50 is ≤ 0.1 µM.

Consider `CN(C(=O)N1CCCC1)[C@H]1CCN(c2ccc3ncc(-c4ccncc4)n3n2)C1` [(S)-N-methyl-N-(1-(3-(pyridin-4-yl)imidazo[1,2-b]pyridazin-6-yl)pyrrolidin-3-yl)pyrrolidine-1-carboxamide], for which the IC50 was ≤ 0.1 µM.

For `N#Cc1cnc2ccc(NC[C@@H]3CCCN3C(=O)OC3CCCC3)nn12` [(S)-cyclopentyl 2-(((3-cyanoimidazo[1,2-b]pyridazin-6-yl)amino)methyl)pyrrolidine-1-carboxylate], the 50% inhibitory concentration (IC50) is ≤ 0.01 µM.

In the case of `O=C(OCC1CC1)N1CCC[C@H]1CNc1ccc2ncc(-c3ccncc3)n2n1` [(S)-cyclopropylmethyl 2-(((3-(pyridin-4-yl)imidazo[1,2-b]pyridazin-6-yl)amino)methyl)pyrrolidine-1-carboxylate], the IC50 was ≤ 0.01 µM.

On to `O=C(OCC1CC1)N1CCC[C@H]1CNc1ccc2ncc(Br)n2n1` [(S)-cyclopropylmethyl 2-(((3-bromoimidazo[1,2-b]pyridazin-6-yl)amino)methyl)pyrrolidine-1-carboxylate], for which the IC50 was ≤ 0.01 µM.

With `CC(C)OC(=O)N1CCC[C@H]1COc1ccc2ncc(-c3cccnc3O)n2n1` [(S)-isopropyl 2-(((3-(2-hydroxypyridin-3-yl)imidazo[1,2-b]pyridazin-6-yl)oxy)methyl)pyrrolidine-1-carboxylate], the IC50 was ≤ 0.1 µM.

Regarding `COc1ncccc1-c1cnc2ccc(OC[C@@H]3CCCN3C(=O)OC(C)C)nn12` [(S)-isopropyl 2-(((3-(2-methoxypyridin-3-yl)imidazo[1,2-b]pyridazin-6-yl)oxy)methyl)pyrrolidine-1-carboxylate], the IC50 is ≤ 0.1 µM.

Turning to `Cc1ccc(-c2cnc3ccc(N4CC[C@H](N(C)C(=O)OC(C)C)C4)nn23)c(=O)n1C` [(S)-isopropyl (1-(3-(1,6-dimethyl-2-oxo-1,2-dihydropyridin-3-yl)imidazo[1,2-b]pyridazin-6-yl)pyrrolidin-3-yl)(methyl)carbamate], the IC50 is ≤ 0.1 µM.

`CC(C)OC(=O)N(C)[C@H]1CCN(c2ccc3ncc(-c4cccnc4OC(F)F)n3n2)C1` [(S)-isopropyl (1-(3-(2-(difluoromethoxy)pyridin-3-yl)imidazo[1,2-b]pyridazin-6-yl)pyrrolidin-3-yl)(methyl)carbamate]: the IC50 is ≤ 0.01 µM.

The term IC50 denotes the concentration at which inhibition is half-maximal. Read a low IC50 as inhibition by little substance.
